Entries after “also recorded” stand apart in the source; their conditions may differ.
What was measured:
naïve CD4+ T-cells = experiment: ELISPOT, naïve CD4+ T cells stimulated with anti-CD3-Ig and anti-CD28-Ig; type: cell-based, mouse; details: for anti-CD3-Ig/anti-CD28-Ig-mediated IFN-γ production: 100 μM oATP combined with 50 μM NF-449 and 50 μM 5-BDBD
Procedure: The effect of P2X7R targeting was tested by treatment with oATP during T-cell activation. […] Similarly, in a T-cell proliferation assay, CFSE-labeled naïve CD4^+ T-cells were stimulated for 4 days with 0.5 μg/ml anti-CD3-Ig and anti-CD28-Ig; treatment with 100 μM oATP diminished CD4^+ T-cell proliferation (FIG. 5B, right panel) compared to controls (FIG. 5B, left panel).
To address the mechanisms underlying P2X7R targeting mediated inhibition of cardiac transplant rejection, the inventors analyzed the effect of P2X7R targeting on T-cell activation and Th1/Th17 differentiation in vitro. […] The effect of in vitro P2X7R targeting with oATP during CD4+ T-cell activation was tested. […] Second, in a T-cell proliferation assay, carboxyfluorescein diacetate succinimidyl ester-labeled naïve CD4+ T cells were stimulated for 96 hours with 0.5 μg/mL anti-CD3-Ig and anti-CD28-Ig, and treatment with 100 μM oATP diminished CD4+ T cell proliferation in comparison with controls. […] The inventors next tested the effect of in vitro P2X7R targeting during a Th1/Th17 generation and differentiation assay. […] P2X7R targeting with oATP inhibited Th0 conversion into both Th1 and Th17, as assessed by the percentage of IFN-γ+ and IL-17+ cells, respectively. The inventors show, therefore, that P2X7R targeting through oATP suppresses activation, proliferation, and Th1/Th17 differentiation of CD4+ T cells. The inventors then further investigated the role of P2X7R on T-cell activation and Th1/Th17 differentiation by genetic upregulation of P2X7R. P2X7R cDNA was transduced by using a pMY-IRES-GFP retroviral vector into CD4+ T cells (pmY-P2X7R CD4+ T cells), and upregulation of P2X7R expression was confirmed by Western blot. pmY-P2X7R CD4+ T cells were then challenged with anti-CD3-Ig/anti-CD28-Ig stimulation in an ELISPOT assay. […] In a Th1/Th17 generation assay, pmY-P2X7R CD4+ T cells seemed to display increased differentiation capacity in comparison with pmY-mock CD4+ T cells, as assessed by T-bet and ROR-γ expression.
(§1) Several key components of T-cell receptor signaling involved in the alloimmune response were examined, and the phosphorylation kinetics following in vitro anti-CD3-Ig/anti-CD28-Ig-mediated CD4+ T-cell activation was evaluated by using the Luminex assay. […] The inventors first confirmed that Colivelin (Col) was able to restore the activation-induced phosphorylation of STAT3 in a dose-dependent manner in oATP-treated CD4+ T cells by Western blotting. […] The effect of oATP and Colivelin on STAT3 phosphorylation and T-cell function was also evaluated following cardiac transplantation.

CD4+ and CD8+ T cells = experiment: IFN-γ production of CD4+ and CD8+ T cells with Bz-ATP; type: cell-based, mouse
[1] = tested on: PBMCs obtained from healthy control subjects; experiment: ELISPOT, human PBMCs challenged with allogeneic irradiated PBMCs; type: cell-based
C57BL/6 splenocytes = experiment: In vitro alloimmune ELISPOT, C57BL/6 responder splenocytes vs irradiated BALB/c splenocytes; type: cell-based, mouse; details: selective P2X1R / P2X3R inhibitors
Excerpt: The effect of increasing doses of oATP on Th1/Th17 cytokine levels was next tested. A dose-dependent response was evident, in which oATP reduced the number of cells producing Th1 cytokines (IFN-γ and IL-2) and Th17 cytokines (IL-6 and IL-17). Because it has been reported that oATP may affect other P2XRs, the inventors made use of the availability of the selective P2X1R inhibitor NF 449 and of the selective P2X3R inhibitor NF 110. C57BL/6 splenocytes were stimulated with irradiated BALB/c splenocytes, and IFN-γ production was evaluated in the presence of these inhibitors.

[2] = tested on: C57BL/6 mice transplanted with BALB/c islets; experiment: Allogeneic islet transplantation, BALB/c islets into diabetic C57BL/6 mice: graft survival; type: in vivo, mouse; details: oATP daily i.p. 14-15 days, rapamycin 0.1 mg/kg 10 days
[3] = tested on: B6 recipients of BALB/c lung allografts; experiment: Mouse orthotopic lung transplant, BALB/c donor and C57BL/6 recipient; type: in vivo
Procedure: Orthotopic left lung transplants were performed as previously described {Bizargity, #22; Iken, #21}. Briefly, donor mice were anesthetized with ketamine and xylazine, intubated with a 22 G Angiocath, and ventilated with isoflurane/oxygen. Lungs were flushed with ice cold phosphate buffered saline, left lung harvested and cuffs placed in the pulmonary artery, pulmonary vein and bronchus. Recipient mice were anesthetized and ventilated with isoflurane/oxygen, and left lung transplants performed via a thoracotomy and implantation of the three-cuffed hilar structures. Transplanted lungs were harvested 15 to 60-70 days following transplantation.
Allografts were evaluated 15, 30, and 60-70 days after transplant.
Outcome Measures—In vivo assessment of transplanted lung function was performed by thoracic CT scan imaging and measuring peak airway pressures (PawP) as previously described {Bizargity, #22}. […] Flow cytometry and enzyme-linked immunosorbent spot assay (ELISPOT) for interferon (IFN)-γ and interleukin (IL)-4 were performed as previously described {Vergani, #25; Vergani, #9}.

STAT3 [4] = experiment: STAT3 phosphorylation in CD4+ T cells of cardiac-transplanted mice (Western blot); type: in vivo, mouse; details: 7 days after transplantation
Procedure: as §1

[5] = tested on: C57BL/6 mice transplanted with BALB/c hearts; type: in vivo, mouse; details: oATP-treated cardiac-transplanted mice
Procedure: The effect of P2X7R targeting in preventing cardiac transplant rejection was tested using the P2X7R inhibitor oATP.
The effect of P2X7R targeting in preventing cardiac transplant rejection was tested by using the P2X7R inhibitor oATP.

STAT3 [6] = experiment: Phosphorylation of T-cell signaling molecules in activated CD4+ T cells (Luminex/Milliplex, Western blot); type: cell-based, mouse; details: Colivelin add-back, Western blot
Procedure: 60 minutes after anti-CD3-Ig and anti-CD28-Ig mediated activation, cells were lysed and the phosphorylation status of CREB, Erk, Akt, JNK, p38, p70 S6 Kinase, STAT3, and STAT5A/B was assessed using the Millipore Milliplex Cell Signaling Assay. […] Data were confirmed by western blot (FIG. 6D).
as §1

O=C1CN=C(c2cccc(Br)c2)c2oc3ccccc3c2N1 [5-BDBD] was tested. Which “anti-CD3-Ig/anti-CD28-Ig-mediated IFN-γ production” value (naïve CD4+ T-cells) did it give?
Its value is “further suppression”.

With Nc1ncnc2c1ncn2[C@@H]1O[C@H](COP(=O)(O)OP(=O)(O)OP(=O)(O)O)[C@@H](OC(=O)c2ccc(C(=O)c3ccccc3)cc2)[C@H]1O [Bz-ATP, benzoyl-ATP] as the molecule, how does the IFN-γ production (CD4+ and CD8+ T cells; 1 mmol/L Bz-ATP, T cells from wildtype mice) read?
The IFN-γ production was “increased”.

What about the IFN-γ production (CD4+ and CD8+ T cells; T cells from P2X7R2/2 mice) of the same molecule?
Its IFN-γ production is “similarly stimulated”.

COC[C@H](O)Cn1c(=O)cnn(-c2ccc(Cl)c(C(=O)NCC3(O)CCCCCC3)c2)c1=O [CE-224535] was tested. Which “allo- and autoimmune responses ex vivo” value [1] did it give?
The value was “inhibition”.

O=C(Nc1cc(C(=O)Nc2ccc(S(=O)(=O)O)cc2)cc(C(=O)Nc2ccc(S(=O)(=O)O)cc2)c1)Nc1cc(C(=O)Nc2ccc(S(=O)(=O)O)cc2)cc(C(=O)Nc2ccc(S(=O)(=O)O)cc2)c1 [NF 110] was tested. Which “alloantigen-mediated IFN-γ production” value (C57BL/6 splenocytes) did it give?
The value was “failed to modulate”.

For O=C(Nc1cc(C(=O)Nc2ccc(S(=O)(=O)O)cc2S(=O)(=O)O)cc(C(=O)Nc2ccc(S(=O)(=O)O)cc2S(=O)(=O)O)c1)Nc1cc(C(=O)Nc2ccc(S(=O)(=O)O)cc2S(=O)(=O)O)cc(C(=O)Nc2ccc(S(=O)(=O)O)cc2S(=O)(=O)O)c1 [NF 449], which “alloantigen-mediated IFN-γ production” value (C57BL/6 splenocytes) is on record?
The value was “failed to modulate”.

What about the “anti-CD3-Ig/anti-CD28-Ig-mediated IFN-γ production” value (naïve CD4+ T-cells) of the same molecule?
The value was “further suppression”.

How did the “islet allograft mean survival time (MST)” value [2] turn out when CO[C@H]1C[C@@H]2CC[C@@H](C)[C@@](O)(O2)C(=O)C(=O)N2CCCC[C@H]2C(=O)O[C@H]([C@H](C)C[C@@H]2CC[C@@H](O)[C@H](OC)C2)CC(=O)[C@H](C)/C=C(\C)[C@@H](O)[C@@H](OC)C(=O)[C@H](C)C[C@H](C)/C=C/C=C/C=C/1C [Rapamycin] was run?
Its value is 19 days.

What about the “islet allograft mean survival time (MST)” value ([2]; listed as rapamycin) of the same molecule?
The value was 18 days.

What does the source list for Cc1ccc(C(=O)Nc2ccc(S(=O)(=O)O)c3cc(S(=O)(=O)O)cc(S(=O)(=O)O)c23)cc1NC(=O)c1cccc(NC(=O)Nc2cccc(C(=O)Nc3cc(C(=O)Nc4ccc(S(=O)(=O)O)c5cc(S(=O)(=O)O)cc(S(=O)(=O)O)c45)ccc3C)c2)c1 [suramin]?
acute cellular rejection (ACR grade) ([3]; 15, 30 and ≥60 days after transplantation): reduction; lung function (PawP) ([3]; 15 to ≥60 days): improved

What does the source list for Colivelin?
phosphorylated STAT3 in CD4+ T cells (STAT3 [4]): reestablish STAT3 phosphorylation; effect of Colivelin on oATP-mediated allograft survival [5]: greatly abrogated the effect of oATP; activation-induced phosphorylation of STAT3 in oATP-treated CD4+ T cells (STAT3 [6]): restore; reversal of oATP-mediated suppression of IFN-γ-producing cells (naïve CD4+ T-cells; Colivelin added to oATP-treated cells): significantly revert; also recorded: partially reverted
